Laboratory results published in patent US20040248919A1, “Fluorinated trienes and their use as rxr modulators” (priority 2001, published 2004).

Tested on: RXR:RAR heterodimer
Assay: RXR:RAR heterodimer co-transfection assay (RARa Synergy CTF) in CV-1 cells
Assay type: cell-based, human
Conditions: for RARa Synergy CTF % Efficacy: agonist efficacy
Excerpt: In the co-transfection assay, cloned cDNA for one or more IRs (e.g. human RARα, RXRα, or PPARγ), alone or in combination (i.e. for heterodimer assays) under the control of a constitutive promoter (e.g., the SV 40, RSV or CMV promoter) is introduced by transfection (a procedure to introduce exogenous genes into cells) into a background cell substantially devoid of endogenous IRs. These introduced gene(s) direct the recipient cells to make the IR protein(s) of interest. A further gene is also introduced (co-transfected) into the same cells in conjunction with the IR gene(s). This further gene, comprising the cDNA for a reporter protein, such as firefly luciferase (LUC), controlled by an appropriate hormone responsive promoter containing a hormone response element (HRE). This reporter plasmid functions as a reporter for the transcriptional-modulating activity of the target IR(s). Thus, the reporter acts as a surrogate for the products (mRNA then protein) normally expressed by a gene under control of the target receptor(s) and their native hormone(s).
The RXR modulator compounds of the present invention were further tested for activity on RXR heterodimers with RARα utilizing the cotransfection assay in CV-1 cells as described in Example 12B. The RXR:RAR heterodimer cotransfection assays utilized the following expression plasmids and reporter plasmid: pRShRARα (10 ng/well, Giguere et al., 330 Nature, 624 (1987) the disclosure of which is herein incorporated by reference) or pRShRARγ (10 ng/well, Ishikawa et al., 4 Mol. Endocrin, 837 (1990) the disclosure of which is herein incorporated by reference) with Δ-MTV-LUC (50 ng/well, Hollenberg and Evans, 55 Cell, 899 (1988), the disclosure of which is herein incorporated by reference) containing an RARE which is referred to as two copies of the TRE-palindromic response element described in Umesono et al., 336 Nature, 262 (1988), the disclosure of which is herein incorporated by reference. To conduct a RXR:PPARγ heterodimer cotransfection assay, the RXRα receptor expression plasmid, pRShRXRα (10 ng/well), can be cotransfected with the PPARγ expression plasmid, pCMVhPPARγ (10 ng/well), and a reporter plasmid containing three copies of a PPARγ response element (pPREA3-tk-LUC, 50 ng/well; Mukherjee et al. 272 Journ. Biol. Chem., 8071-8076 (1997) and references cited therein, the disclosures of which are herein incorporated by reference).
Cotransfections were performed as described in Example 12B. For determination of agonist activity in the context of the RXR:RAR heterodimer, media containing compounds of the present invention in concentrations ranging from 10^−10 to 10^−5 M were added to the cells. Similarly, the reference compounds all-trans retinoic acid (ATRA)(Sigma Chemical) and TTNPB ((E)-4-[2-(5,6,7,8-tetrahydro-5,5,8,8-tetramethyl-2-naphthalenyl)-1-propenyl]benzoic acid: Hoffman LaRoche, Inc.), known RAR agonist compounds were added at similar concentrations to provide a reference point for analysis of the agonist activity of the compounds of the present invention. Antagonist efficacy and IC50 values were determined as in Example 12B.
RAR suppresses RXR ligand binding and transactivation of typical RXR agonists (e.g., LGD1069, LG100268) via allosteric interactions. Forman, B. M., Umesono, K., Chen, J., & Evans, R. M., Cell 81, 541-550 (1995) and Kurokawa, R., et. al. Nature 371, 528-531 (1994). However, when RAR is occupied, typical RXR agonists activate the heterodimer. Forman, B. M., Umesono, K, Chen, J., & Evans, R. M., Cell 81, 541-550 (1995) and Roy, B., Taneja, R., & Chambon, P., Mol. Cell. Biol. 15, 6481-6487 (1995). To examine the effects of the compounds of the present invention on the transcriptional properties of the RXR:RAR heterodimer, a heterodimer cotransfection assay as described above was employed.

C/C(=C/C=C(F)/C(C)=C/C(=O)O)c1cc(C(C)(C)C)cc(C(C)(C)C)c1OCC(F)F [Example 1, 7-[3,5-di-tert-butyl-2-(2,2-difluoroethoxy)-phenyl]4-fluoro-3-methyl-octa-2,4,6-trienoic acid]
RARa Synergy CTF fold induction: 3 | RARa Synergy CTF % Efficacy: 28%

C/C(=C/C(F)=C/C(C)=C/C(=O)O)c1cc(C(C)(C)C)cc(C(C)(C)C)c1OCC(F)F [Example 2, 7-[3,5-Di-tert-butyl-2-(2,2-difluoroethoxy)-phenyl]-5-fluoro-3-methyl-octa-2,4,6-trienoic acid]
RARa Synergy CTF fold induction: 9 | RARa Synergy CTF % Efficacy: 112%

CCCCOc1c(\C(C)=C/C=C/C(=C/C(=O)O)C(F)(F)F)cc(C(C)C)cc1C(C)C [Example 3, (2Z,4E,6Z)-7-(2-Butoxy-3,5-diisopropylphenyl)-3-trifluoromethyl-octa-2,4,6-trienoic acid]
RARa Synergy CTF fold induction: 1 | RARa Synergy CTF % Efficacy: 6%

CCCCOc1c(\C(C)=C/C=C/C(=C\C(=O)O)C(F)(F)F)cc(C(C)C)cc1C(C)C [Example 4, (2E,4E,6Z)-7-(2-Butoxy-3,5-diisopropylphenyl)-3-trifluoromethyl-octa-2,4,6-trienoic acid]
RARa Synergy CTF fold induction: 1 | RARa Synergy CTF % Efficacy: 6%

CCOc1c(\C(=C/C=C/C(C)=C/C(=O)O)C(F)(F)F)cc(C(C)(C)C)cc1C(C)(C)C [Example 5, (2E,4E,6E)-3-methyl-7-(2-ethoxy-3,5-di-tert-butylphenyl)-8,8,8-trifluoroocta-2,4,6-trienoic acid]
RARa Synergy CTF % Efficacy: 7%
